Several values for one entry are separate records, joined by “and”; a condition that tells them apart may be missing. Identical values can stand only once. Toxic doses and inconclusive results are not listed.

This test concerns L1210 leukemia ip in BDF1 mice, survival T/C. The experiment in a line: NCI In Vivo Anticancer Drug Screen. Data for tumor model L1210 Leukemia (intraperitoneal) in B6D2F1 (BDF1) mice. As to conditions: endpoint: mean survival time, higher = longer survival. A digest of the protocol: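 Transplanted-tumor mice were given test agent; controls received vehicle only. Survival readings from the two groups were divided (treated over control).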

Setting [1] is: dose: 100.0 mg/kg/injection, schedule: Q04DX003 (ip), vehicle: saline with Tween-80.
Setting [2] is: dose: 200.0 mg/kg/injection, schedule: Q04DX003 (ip), vehicle: saline with Tween-80.
Setting [3] is: dose: 400.0 mg/kg/injection, schedule: Q04DX003 (ip), vehicle: saline with Tween-80.
Where [4] appears, read: dose: 100.0 mg/kg/injection, schedule: Q01DX001 (ip), vehicle: carboxymethylcellulose (CMC).
[5] abbreviates: dose: 100.0 mg/kg/injection, schedule: Q01DX009 (ip), vehicle: Klucel (hydroxypropylcellulose) (HPC).
The mark [6] stands for this setting: dose: 200.0 mg/kg/injection, schedule: Q01DX001 (ip), vehicle: carboxymethylcellulose (CMC).
[7] abbreviates: dose: 200.0 mg/kg/injection, schedule: Q01DX009 (ip), vehicle: Klucel (hydroxypropylcellulose) (HPC).
[8] abbreviates: dose: 400.0 mg/kg/injection, schedule: Q01DX001 (ip), vehicle: carboxymethylcellulose (CMC).
[9] abbreviates: dose: 100.0 mg/kg/injection, schedule: Q01DX001 (ip), vehicle: saline.
[10] abbreviates: dose: 200.0 mg/kg/injection, schedule: Q01DX001 (ip), vehicle: saline.
Where [11] appears, read: dose: 400.0 mg/kg/injection, schedule: Q01DX001 (ip), vehicle: saline.

In the case of `COc1ccccc1C1(O)c2ccccc2Sc2cccc(OC)c21` (stereo unspecified), the T/C is 104 % of control under setting [1], 95 % of control under setting [2] and 98 % of control under setting [3].

Take `CC1CC=CCC1COC(=O)C(=O)OCC1CC=CCC1C` (stereo unspecified): the T/C (dose: 100.0 mg/kg/injection, schedule: Q01DX009 (ip), vehicle: saline with Tween-80) is 98 % of control; the T/C under setting [1] was 101 % of control; the T/C (dose: 200.0 mg/kg/injection, schedule: Q01DX009 (ip), vehicle: saline with Tween-80) was 95 % of control; the T/C under setting [2] is 97 % of control; the T/C (dose: 400.0 mg/kg/injection, schedule: Q01DX009 (ip), vehicle: saline with Tween-80) was 95 % of control; the T/C under setting [3] was 95 % of control.

As for `C=C1C(=O)OC2C(=O)OC(CCCCCCCC)C12` (stereo unspecified), the T/C reads like this: (dose: 6.2 mg/kg/injection, schedule: Q04DX002 (ip), vehicle: Klucel (hydroxypropylcellulose) (HPC)) 97 % of control; (dose: 12.5 mg/kg/injection, schedule: Q04DX002 (ip), vehicle: Klucel (hydroxypropylcellulose) (HPC)) 94 % of control; (dose: 25.0 mg/kg/injection, schedule: Q04DX002 (ip), vehicle: Klucel (hydroxypropylcellulose) (HPC)) 97 % of control and 104 % of control.

For the molecule `COC1=C(NC2CCCCC2)C(=O)C(OC)=C(NC2CCCCC2)C1=O`, the T/C is 103 % of control (dose: 50.0 mg/kg/injection, schedule: Q01DX001 (ip), vehicle: carboxymethylcellulose (CMC)); 101 % of control under setting [4]; 86 % of control under setting [5]; 96 % of control (dose: 100.0 mg/kg/injection, schedule: Q04DX003 (ip), vehicle: Klucel (hydroxypropylcellulose) (HPC)); 101 % of control under setting [6]; 98 % of control under setting [7]. For the same molecule, the T/C is 94 % of control (dose: 200.0 mg/kg/injection, schedule: Q04DX003 (ip), vehicle: Klucel (hydroxypropylcellulose) (HPC)); 103 % of control under setting [8]; 91 % of control (dose: 400.0 mg/kg/injection, schedule: Q01DX009 (ip), vehicle: Klucel (hydroxypropylcellulose) (HPC)); 94 % of control (dose: 400.0 mg/kg/injection, schedule: Q04DX003 (ip), vehicle: Klucel (hydroxypropylcellulose) (HPC)).

Regarding `CCCCCCCCC1SC1CCCCCCCC(=O)OCC1CS1` (stereo unspecified), the T/C (dose: 100.0 mg/kg/injection, schedule: Q01DX001 (ip), vehicle: other) was 101 % of control; the T/C (dose: 200.0 mg/kg/injection, schedule: Q01DX001 (ip), vehicle: other) was 115 % of control; the T/C (dose: 400.0 mg/kg/injection, schedule: Q01DX001 (ip), vehicle: other) is 93 % of control.

As to `O=P(N1CCCCCC1)(N1CC1)N1CC1`, the T/C was 107 % of control (dose: 1.7 mg/kg/injection, schedule: Q01DX Z (ip), vehicle: saline); 114 % of control (dose: 2.6 mg/kg/injection, schedule: Q01DX Z (ip), vehicle: saline); 120 % of control (dose: 4.0 mg/kg/injection, schedule: Q01DX Z (ip), vehicle: saline); 152 % of control (dose: 9.0 mg/kg/injection, schedule: Q01DX Z (ip), vehicle: saline).

With `C[N+](C)(C)Cc1ncccc1OC(=O)N(c1ccccc1)c1ccccc1`, the T/C reads like this: (dose: 25.0 mg/kg/injection, schedule: Q04DX003 (ip), vehicle: saline with Tween-80) 96 % of control; (dose: 50.0 mg/kg/injection, schedule: Q04DX003 (ip), vehicle: saline with Tween-80) 96 % of control; under setting [1], 96 % of control and 101 % of control.

Turning to `CC(C)(C)NC(=O)Oc1ccc(Br)cc1Br`, the T/C is 104 % of control (dose: 100.0 mg/kg/injection, schedule: Q01DX009 (ip), vehicle: saline); 88 % of control (dose: 100.0 mg/kg/injection, schedule: Q04DX003 (ip), vehicle: saline); 98 % of control (dose: 200.0 mg/kg/injection, schedule: Q01DX009 (ip), vehicle: saline); 92 % of control (dose: 200.0 mg/kg/injection, schedule: Q04DX003 (ip), vehicle: saline); 104 % of control (dose: 400.0 mg/kg/injection, schedule: Q01DX009 (ip), vehicle: saline); 87 % of control (dose: 400.0 mg/kg/injection, schedule: Q04DX003 (ip), vehicle: saline).

Regarding `CCCCCCC(=O)N(CC)CC`, the T/C runs as follows: (dose: 100.0 mg/kg/injection, schedule: Q04DX002 (ip), vehicle: saline) 94 % of control; (dose: 200.0 mg/kg/injection, schedule: Q04DX002 (ip), vehicle: saline) 98 % of control; (dose: 400.0 mg/kg/injection, schedule: Q04DX002 (ip), vehicle: saline) 91 % of control.

In the case of `CC(C)NC(=O)Nc1cccc(O)c1`, the T/C is 96 % of control under setting [1], 89 % of control under setting [2] and 89 % of control under setting [3].

Consider `CCCCCCCCCCCCCCCCSC(=N)N`, for which the T/C (dose: 100.0 mg/kg/injection, schedule: Q04DX003 (ip), vehicle: carboxymethylcellulose (CMC)) was 91 % of control and the T/C (dose: 200.0 mg/kg/injection, schedule: Q04DX003 (ip), vehicle: carboxymethylcellulose (CMC)) was 93 % of control.

Regarding `Nc1ccc(C(=O)CC(N)C(=O)O)cc1O` (stereo unspecified), the T/C runs as follows: under setting [4], 112 % of control; under setting [6], 91 % of control; under setting [8], 100 % of control.

On to `CCCC(C)OP(=O)(OCC)OCC` (stereo unspecified), for which the T/C under setting [5] was 94 % of control and the T/C under setting [7] is 100 % of control.

On to `Cc1ccc(S(=O)(=O)/C=C(/I)C(=O)c2ccccc2)cc1`, for which the T/C reads like this: under setting [9], 95 % of control; under setting [10], 93 % of control; under setting [11], 95 % of control.

For the molecule `COC(=O)CSc1nc2ccccc2[nH]1`, the T/C is, setting by setting: (dose: 100.0 mg/kg/injection, schedule: Q04DX002 (ip), vehicle: Klucel (hydroxypropylcellulose) (HPC)) 104 % of control; (dose: 200.0 mg/kg/injection, schedule: Q04DX002 (ip), vehicle: Klucel (hydroxypropylcellulose) (HPC)) 100 % of control; (dose: 400.0 mg/kg/injection, schedule: Q04DX002 (ip), vehicle: Klucel (hydroxypropylcellulose) (HPC)) 100 % of control.

For `Cc1c(C#N)sc2ccccc12`, the T/C runs as follows: under setting [9], 96 % of control; under setting [10], 96 % of control; under setting [11], 96 % of control.

In the case of `Nc1ccc2c(c1)Cc1ccccc1-2`, the T/C was 101 % of control under setting [1] and 101 % of control under setting [2].

As to `C=CCCCCCCCC/C=C1\CCOC1=O`, the T/C was 105 % of control (dose: 75.0 mg/kg/injection, schedule: Q01DX009 (ip), vehicle: saline with Tween-80); 104 % of control under setting [1]; 93 % of control (dose: 150.0 mg/kg/injection, schedule: Q01DX009 (ip), vehicle: saline with Tween-80); 89 % of control under setting [2]; 99 % of control (dose: 300.0 mg/kg/injection, schedule: Q01DX009 (ip), vehicle: saline with Tween-80); 102 % of control under setting [3].

On to `Cc1ccc(S(=O)(=O)N(C)CCC(C)C(=O)NN(C)c2ccccc2)cc1` (stereo unspecified), for which the T/C is, setting by setting: (dose: 75.0 mg/kg/injection, schedule: Q01DX001 (ip), vehicle: saline) 95 % of control; (dose: 150.0 mg/kg/injection, schedule: Q01DX001 (ip), vehicle: saline) 89 % of control; (dose: 300.0 mg/kg/injection, schedule: Q01DX001 (ip), vehicle: saline) 90 % of control.

Regarding `CC1(C)CN(N=O)C(C)(C)CN1N=O`, the T/C reads like this: (dose: 100.0 mg/kg/injection, schedule: Q04DX003 (ip), vehicle: acetone) 99 % of control; (dose: 200.0 mg/kg/injection, schedule: Q04DX003 (ip), vehicle: acetone) 103 % of control; (dose: 400.0 mg/kg/injection, schedule: Q04DX003 (ip), vehicle: acetone) 96 % of control.

Consider `O=C1OCC(CN2CC3CCC(CC3)C2)=C1c1ccccc1`, for which the T/C (dose: 100.0 mg/kg/injection, schedule: Q01DX001 (ip), vehicle: Klucel (hydroxypropylcellulose) (HPC)) is 94 % of control; the T/C (dose: 200.0 mg/kg/injection, schedule: Q01DX001 (ip), vehicle: Klucel (hydroxypropylcellulose) (HPC)) is 102 % of control; the T/C (dose: 400.0 mg/kg/injection, schedule: Q01DX001 (ip), vehicle: Klucel (hydroxypropylcellulose) (HPC)) was 94 % of control.

As to `C/C(=N/OC(=O)N(C)C)c1cccs1`, the T/C by setting is: (dose: 5.0 mg/kg/injection, schedule: Q01DX001 (ip), vehicle: other) 103 % of control; (dose: 10.0 mg/kg/injection, schedule: Q01DX001 (ip), vehicle: other) 94 % of control; (dose: 20.0 mg/kg/injection, schedule: Q01DX001 (ip), vehicle: other) 97 % of control; (dose: 40.0 mg/kg/injection, schedule: Q01DX001 (ip), vehicle: other) 92 % of control.

The record behind these values is PubChem BioAssay AID248 (DTP/NCI, 2004).
